# From patent US20020086862A1, “Novel compounds” (AstraZeneca AB, priority 1998, published 2002)
row,SMILES,melting point
1,"S=c1[nH]c(-c2ccc(Cl)c(Cl)c2)nn1Cc1ccccc1 [Example 25, 5-(3,4-Dichlorophenyl)-1,2-dihydro-2-(phenylmethyl)-3H-1,2,4-triazole-3-thione]",227 to 228 °C
2,"S=c1[nH]c(-c2ccc(-c3ccccc3)cc2)nn1Cc1ccccc1 [Example 15, 1,2-Dihydro-2-(phenylmethyl)-5-(4-phenylphenyl)-3H-1,2,4-triazole-3-thione]",249 to 250 °C
3,"CSc1ccccc1-c1nn(Cc2ccccc2)c(=S)[nH]1 [Example 38, 1,2-Dihydro-5-[2-(methylthio)phenyl]-2-(phenylmethyl)-3H-1,2,4-triazole-3-thione]",170 to 171 °C
4,"S=c1[nH]c(-c2ccco2)nn1Cc1ccccc1 [Example 11, 5-(2-Furanyl)-1,2-dihydro-2-(phenylmethyl)-3H-1,2,4-triazole-3-thione]",212 to 213 °C
5,"Fc1ccc(-c2nn(Cc3ccccc3)c(=S)[nH]2)c(Cl)c1 [Example 22, 5-(2-Chloro-4-fluorophenyl)-1,2-dihydro-2-(phenylmethyl)-3H-1,2,4-triazole-3-thione]",135 to 136 °C
6,"COc1ccccc1-c1nn(Cc2ccccc2)c(=S)[nH]1 [Example 18, 1,2-Dihydro-5-(2-methoxyphenyl)-2-(phenylmethyl)-3H-1,2,4-triazole-3-thione]",142 to 143.5 °C
7,"S=c1[nH]c(-c2ccc(Cl)cc2Cl)nn1Cc1ccccc1 [Example 27, 5-(2,4-Dichlorophenyl)-1,2-dihydro-2-(phenylmethyl)-3H-1,2,4-triazole-3-thione]",169 to 170 °C
8,"S=c1[nH]c(-c2cccc(Oc3ccccc3)c2)nn1Cc1ccccc1 [Example 30, 1,2-Dihydro-5-(3-phenoxyphenyl)-2-(phenylmethyl)-3H-1,2,4-triazole-3-thione]",200 to 202 °C
9,"S=c1[nH]c(-c2cccc(Cl)c2Cl)nn1Cc1ccccc1 [Example 8, 5-(2,3-Dichlorophenyl)-1,2-dihydro-2-(phenylmethyl)-3H-1,2,4-triazole-3-thione]",179 to 180 °C
10,"S=c1[nH]c(-c2ccc(Cl)cc2Cl)nn1Cc1cccc(Cl)c1 [Example 32, 2-[(3-Chlorophenyl)methyl]-5-(2,4-dichlorophenyl)-1,2-dihydro-3H-1,2,4-triazole-3-thione]",190 to 191 °C
11,"N#Cc1ccc(-c2nn(Cc3ccccc3)c(=S)[nH]2)cc1 [Example 7, 5-(4-Cyanophenyl)-1,2-dihydro-2-(phenylmethyl)-3H-1,2,4-triazole-3-thione]",237 to 238 °C
12,"FC(F)(F)c1ccc(-c2nn(Cc3ccccc3)c(=S)[nH]2)cc1 [Example 21, 1,2-Dihydro-2-(phenylmethyl)-5-[4-(trifluoromethyl)phenyl]-3H-1,2,4-triazole-3-thione]",201 to 203 °C
13,"COc1cccc(Cn2nc(-c3ccc(Cl)cc3Cl)[nH]c2=S)c1 [Example 33, 5-(2,4-Dichlorophenyl)-1,2-dihydro-2-[(3-methoxyphenyl)methyl]-3H-1,2,4-triazole-3-thione]",173 to 174 °C
14,"Cc1ccccc1-c1nn(Cc2ccccc2)c(=S)[nH]1 [Example 19, 1,2-Dihydro-5-(2-methylphenyl)-2-(phenylmethyl)-3H-1,2,4-triazole-3-thione]",150 to 153 °C
15,"Cc1ccc(-c2nn(Cc3ccccc3)c(=S)[nH]2)cc1 [Example 24, 1,2-Dihydro-5-(4-methylphenyl)-2-(phenylmethyl)-3H-1,2,4-triazole-3-thione]",234 to 235 °C
16,"S=c1[nH]c(-c2ccncc2)nn1Cc1ccccc1 [Example 14, 1,2-Dihydro-2-(phenylmethyl)-5-(4-pyridinyl)-3H-1,2,4-triazole-3-thione]",160 to 162 °C
17,"Fc1ccccc1-c1nn(Cc2ccccc2)c(=S)[nH]1 [Example 17, 5-(2-Fluorophenyl)-1,2-dihydro-2-(phenylmethyl)-3H-1,2,4-triazole-3-thione]",180 to 183 °C
18,"S=c1[nH]c(-c2cccs2)nn1Cc1ccccc1 [Example 31, 1,2-Dihydro-2-(phenylmethyl)-5-(2-thienyl)-3H-1,2,4-triazole-3-thione]",230 to 231 °C
19,"S=c1[nH]c(-c2cc(Cl)sc2Cl)nn1Cc1ccccc1 [Example 13, 5-(2,5-Dichloro-3-thienyl)-1,2-dihydro-2-(phenylmethyl)-3H-1,2,4-triazole-3-thione]",160 to 162 °C
20,"S=c1[nH]c(-c2ccc(Cl)s2)nn1Cc1ccccc1 [Example 4, 5-(5-Chloro-2-thienyl)-1,2-dihydro-2-(phenylmethyl)-3H-1,2,4-triazole-3-thione]",79 to 80 °C
21,"COC(=O)c1ccccc1-c1nn(Cc2ccccc2)c(=S)[nH]1 [Example 2, 2-[1,2-Dihydro-1-(phenylmethyl)-5-thioxo-3H-1,2,4-triazol-3-yl]benzoic acid, methyl ester]",129 to 130 °C
22,"S=c1[nH]c(-c2ccccc2Oc2ccccc2)nn1Cc1ccccc1 [Example 39, 1,2-Dihydro-5-[2-(phenoxy)phenyl]-2-(phenylmethyl)-3H-1,2,4-triazole-3-thione]",158 to 159 °C
23,"O=[N+]([O-])c1ccccc1-c1nn(Cc2ccccc2)c(=S)[nH]1 [Example 6, 1,2-Dihydro-5-(2-nitrophenyl)-2-(phenylmethyl)-3H-1,2,4-triazole-3-thione]",147 to 148 °C
24,"COc1ccc(Br)c(-c2nn(Cc3ccccc3)c(=S)[nH]2)c1 [Example 12, 5-(2-Bromo-5-methoxyphenyl)-1,2-dihydro-2-(phenylmethyl)-3H-1,2,4-triazole-3-thione]",154 to 155 °C
25,"S=c1[nH]c(-c2cccc(Cl)c2)nn1Cc1ccccc1 [Example 5, 5-(3-Chlorophenyl)-1,2-dihydro-2-(phenylmethyl)-3H-1,2,4-triazole-3-thione]",175 to 176 °C
26,"FC(F)(F)c1cccc(-c2nn(Cc3ccccc3)c(=S)[nH]2)c1 [Example 10, 1,2-Dihydro-2-(phenylmethyl)-5-[3-(trifluoromethyl)phenyl]-3H-1,2,4-triazole-3-thione]",209 to 210 °C

# The next lines start with the values.
row,melting point,SMILES
1,208 to 209 °C,"S=c1[nH]c(-c2cccnc2)nn1Cc1cccc(Cl)c1 [Example 56, 2-[(3-Chlorophenyl)methyl]-5-(3-pyridinyl)-1,2-dihydro-3H-1,2,4-triazole-3-thione]"
2,231 to 233 °C,"COc1ccc(-c2nn(Cc3cccc(Cl)c3)c(=S)[nH]2)cc1 [Example 48, 2-[(3-Chlorophenyl)methyl]-5-(4-methoxyphenyl)-1,2-dihydro-3H-1,2,4-triazole-3-thione]"
3,183 to 184 °C,"S=c1[nH]c(-c2ccc(Oc3ccccc3)cc2)nn1Cc1cccc(Cl)c1 [Example 55, 2-[(3-Chlorophenyl)methyl]-5-(4-phenoxyphenyl)-1,2-dihydro-3H-1,2,4-triazole-3-thione]"
4,162 to 163 °C,"Cc1ccc(Cn2nc(-c3ccccc3Cl)[nH]c2=S)cc1 [Example 50, 5-(2-Chlorophenyl)-1,2-dihydro-2-(4-methylphenyl)methyl-3H-1,2,4-triazole-3-thione]"
5,125 to 126 °C,"Fc1cccc(Cn2nc(-c3ccccc3Cl)[nH]c2=S)c1 [Example 58, 5-(2-Chlorophenyl)-1,2-dihydro-2-[(3-fluorophenyl)methyl]-3H-1,2,4-triazole-3-thione]"
6,161 to 163 °C,"N#Cc1cccc(Cn2nc(-c3ccccc3Cl)[nH]c2=S)c1 [Example 64, 5-(2-Chlorophenyl)-1,2-dihydro-2-[(3-cyanophenyl)methyl]-3H-1,2,4-triazole-3-thione]"
7,182 to 183 °C,"O=[N+]([O-])c1ccc(Cn2nc(-c3ccccc3Cl)[nH]c2=S)cc1 [Example 65, 5-(2-Chlorophenyl)-1,2-dihydro-2-[(4-nitrophenyl)methyl]-3H-1,2,4-triazoe-3-thione]"
8,204 to 207 °C,"S=c1[nH]c(-c2cncnc2)nn1Cc1cccc(Cl)c1 [Example 63, 2-[(3-Chlorophenyl)methyl]-5-(pyrrndin-5-yl) 1,2-dihydro-3H-1,2,4-triazole-3-thione]"
9,242 to 243 °C,"S=c1[nH]c(-c2ccc(Br)cc2)nn1Cc1cccc(Cl)c1 [Example 46, 5-(4-Bromophenyl)-2-[(3-chlorophenyl)methyl]-1,2-dihydro-3H-1,2,4-triazole-3-thione]"
10,179 to 182 °C,"S=c1[nH]c(-c2ccc(Cl)cc2Cl)nn1CCc1ccccc1 [Example 44, 5-(2,4-Dichlorophenyl)-1,2-dihydro-2-(2-phenylethyl)-3H-1,2,4-triazole-3-thione]"
11,154 to 155 °C,"O=C(c1ccccc1)c1cccc(-c2nn(Cc3ccccc3)c(=S)[nH]2)c1 [Example 40, 1,2-Dihydro-5-(3-(phenylcarbonyl)phenyl)-2-(phenylmethyl)-3H-1,2,4-triazole-3-thione]"
12,177 to 178 °C,"Cc1cccc(Cn2nc(-c3ccc(Cl)cc3Cl)[nH]c2=S)c1 [Example 43, 5-(2,4-Dichlorophenyl)-1,2-dihydro-2-[(3-methylphenyl)methyl]-3H-1,2,4-triazole-3-thione]"
13,166 to 167 °C,Cc1ccc(C)c(Cn2nc(-c3ccccc3Cl)[nH]c2=S)c1 [Example 60]
14,213 °C,"S=c1[nH]c(-c2ccccc2)nn1Cc1cccc(Cl)c1 [Example 57, 2-[(3-Chlorophenyl)methyl]-5-phenyl-1,2-dihydro-3H-1,2,4-triazole-3-thione]"
15,207 to 208 °C,"Cc1ccc(-c2nn(Cc3cccc(Cl)c3)c(=S)[nH]2)cc1 [Example 47, 2-[(3-Chlorophenyl)methyl]-5-(4-methylphenyl)-1,2-dihydro-3H-1,2,4-triazole-3-thione]"
16,143 to 143.5 °C,"S=c1[nH]c(-c2ccccc2Cl)nn1Cc1cccc(Cl)c1 [Example 42, 5-(2-Chlorophenyl)-2-[(3-chlorophenyl)methyl]-1,2-dihydro-3H-1,2,4-triazole-3-thione]"
17,189 to 190 °C,"S=c1[nH]c(-c2ccccc2Cl)nn1Cc1ccccc1I [Example 59, 5-(2-Chlorophenyl)-1,2-dihydro-2-[(2-iodophenyl)methyl]-3H-1,2,4-triazole-3-thione]"
18,153 to 154 °C,COc1ccc(Cn2nc(-c3ccccc3Cl)[nH]c2=S)cc1 [Example 54]
